Assay results published in ChEMBL document CHEMBL1921773, “Carbamates of 4'-demethyl-4-deoxypodophyllotoxin: synthesis, cytotoxicity and cell cycle effects” (Bioorg Med Chem Lett, 2011).

Columns and labels:
A549 [1] = assay: Cytotoxicity against human A549 cells assessed as growth inhibition after 48 hrs by MTT assay; format: functional, cell-based; conditions: A549, 48 h
SiHa = assay: Cytotoxicity against human SiHa cells assessed as growth inhibition after 48 hrs by MTT assay; format: functional, cell-based
HeLa = assay: Cytotoxicity against human HeLa cells assessed as growth inhibition after 48 hrs by CCK-8 assay; format: functional, cell-based
HL-60 = assay: Cytotoxicity against human HL60 cells assessed as growth inhibition after 48 hrs by CCK-8 assay; format: functional, cell-based; conditions: HL-60, 48 h
[2] = Octanol-water partition coefficient, log P of the compound; format: physicochemical
A549 [3] = assay: Cell cycle arrest in human A549 cells assessed as accumulation of cells at G1 phase at 0.4 uM after 12 hrs by propidium iodide staining-based flow cytometry (reference value: 59.9%); format: functional
A549 [4] = assay: Cell cycle arrest in human A549 cells assessed as accumulation of cells at S phase at 0.4 uM after 12 hrs by propidium iodide staining-based flow cytometry (reference value: 36.7%); format: functional
A549 [5] = assay: Cell cycle arrest in human A549 cells assessed as accumulation of cells at G2/M phase at 0.4 uM after 12 hrs by propidium iodide staining-based flow cytometry (reference value: 3.2%); format: functional
A549 [6] = assay: Cell cycle arrest in human A549 cells assessed as accumulation of cells at G1 phase at 0.4 uM after 24 hrs by propidium iodide staining-based flow cytometry (reference value: 59.9%); format: functional
A549 [7] = assay: Cell cycle arrest in human A549 cells assessed as accumulation of cells at S phase at 0.4 uM after 24 hrs by propidium iodide staining-based flow cytometry (reference value: 36.7%); format: functional
A549 [8] = assay: Cell cycle arrest in human A549 cells assessed as accumulation of cells at G2/M phase at 0.4 uM after 24 hrs by propidium iodide staining-based flow cytometry (reference value: 3.2%); format: functional
A549 [9] = assay: Cell cycle arrest in human A549 cells assessed as accumulation of cells at G2/M phase at 0.4 uM by propidium iodide staining-based flow cytometry (reference value: 3.2%); format: functional; conditions: TDE = time-dependent effect

| SMILES | IC50 (A549 [1]) [µM] | IC50 (SiHa) [µM] | IC50 (HeLa) [µM] | IC50 (HL-60) [µM] | logP [2] | Activity (A549 [3]) [%] | Activity (A549 [4]) [%] | Activity (A549 [5]) [%] | Activity (A549 [6]) [%] | Activity (A549 [7]) [%] | Activity (A549 [8]) [%] | Activity (A549 [9]) |
| --- | --- | --- | --- | --- | --- | --- | --- | --- | --- | --- | --- | --- |
| COc1cc([C@@H]2c3cc4c(cc3C[C@H]3COC(=O)[C@@H]32)OCO4)cc(OC)c1OC(=O)N[C@@H](CCSC)C(N)=O | 0.86 | 4.32 | 2.03 | 0.711 | 0.28 |  |  |  |  |  |  |  |
| COc1cc([C@@H]2c3cc4c(cc3C[C@H]3COC(=O)[C@@H]32)OCO4)cc(OC)c1OC(=O)N[C@@H](C)C(N)=O | 4.23 | 0.696 | 0.743 | 0.397 | -0.09 |  |  |  |  |  |  |  |
| COc1cc([C@@H]2c3cc4c(cc3C[C@H]3COC(=O)[C@@H]32)OCO4)cc(OC)c1OC(=O)N[C@H](C(=O)NC1CC1)C(C)C | 2.31 | 0.432 | 0.433 | 0.213 | 1.45 |  |  |  |  |  |  |  |
| COc1cc([C@@H]2c3cc4c(cc3C[C@H]3COC(=O)[C@@H]32)OCO4)cc(OC)c1O [4'-DEMETHYLDEOXYPODOPHYLLOTOXIN] | 1.8 | 53.3 | 43 | 2.96 | 2.92 |  |  |  |  |  |  |  |
| COc1cc([C@@H]2c3cc4c(cc3C[C@H]3COC(=O)[C@@H]32)OCO4)cc(OC)c1OC(=O)N[C@H](C(N)=O)C(C)C | 1.49 | 2.89 | 3.83 | 1.03 | 0.84 |  |  |  |  |  |  |  |
| COc1cc([C@@H]2c3cc4c(cc3C[C@H]3COC(=O)[C@@H]32)OCO4)cc(OC)c1OC(=O)N[C@@H](CC(C)C)C(N)=O | 9.93 | 0.877 | 0.703 | 0.67 | 1.26 |  |  |  |  |  |  |  |
| COc1cc([C@@H]2c3cc4c(cc3C[C@H]3COC(=O)[C@@H]32)OCO4)cc(OC)c1OC [DESOXYPODOPHYLLOTOXIN] | 1.38 | 6.01 | 1.98 | 0.47 | 3.16 |  |  |  |  |  |  |  |
| COc1cc([C@@H]2c3cc4c(cc3C[C@H]3COC(=O)[C@@H]32)OCO4)cc(OC)c1OC(=O)N[C@@H](Cc1ccccc1)C(=O)NC1CCCC1 | 2.69 | 6.87 | 3.07 | 0.988 | 2.06 |  |  |  |  |  |  |  |
| COc1cc([C@@H]2c3cc4c(cc3C[C@H]3COC(=O)[C@@H]32)OCO4)cc(OC)c1OC(=O)N[C@H](Cc1ccccc1)C(N)=O | 1.61 | 0.416 | 0.575 | 0.231 | 1.33 |  |  |  |  |  |  |  |
| COc1cc([C@@H]2c3cc4c(cc3C[C@H]3COC(=O)[C@@H]32)OCO4)cc(OC)c1OC(=O)N[C@@H](Cc1ccccc1)C(N)=O | 3.41 | 1.07 | 1.72 | 0.94 | 1.35 |  |  |  |  |  |  |  |
| CC[C@H](C)[C@H](NC(=O)Oc1c(OC)cc([C@@H]2c3cc4c(cc3C[C@H]3COC(=O)[C@@H]32)OCO4)cc1OC)C(N)=O | 1.77 | 3.7 | 5.28 | 1.02 | 1.36 |  |  |  |  |  |  |  |
| COc1cc([C@@H]2c3cc4c(cc3C[C@H]3COC(=O)[C@@H]32)OCO4)cc(OC)c1OC(=O)N[C@H](CCSC)C(N)=O | 0.887 | 0.614 | 0.528 | 0.0893 | 0.26 | 22.6 | 49.7 | 27.7 | 11.2 | 30.7 | 58.1 | tde |
| COc1cc([C@@H]2c3cc4c(cc3C[C@H]3COC(=O)[C@@H]32)OCO4)cc(OC)c1OC(=O)N[C@H](C(=O)NC1CCCC1)C(C)C | 1.91 | 14.6 | 20.3 | 1.03 | 2.57 |  |  |  |  |  |  |  |
| COc1cc([C@@H]2c3cc4c(cc3[C@@H](O[C@@H]3O[C@@H]5CO[C@@H](C)O[C@H]5[C@H](O)[C@H]3O)[C@H]3COC(=O)[C@H]23)OCO4)cc(OC)c1O [ETOPOSIDE] | 24.9 | 40.4 | 2.76 | 2.85 | 0.69 |  |  |  |  |  |  |  |
| COc1cc([C@@H]2c3cc4c(cc3C[C@H]3COC(=O)[C@@H]32)OCO4)cc(OC)c1OC(=O)N[C@@H](Cc1ccccc1)C(=O)NC1CC1 | 3.37 | 1.12 | 0.693 | 0.416 | 1.95 |  |  |  |  |  |  |  |
